Usually IC50 stands for the concentration at which inhibition is half-maximal.

Here are results for 5 compounds from article PMC7179202 (Molecules, 2020).

In data set [1] the test system is H1993 (c-MET-dependent non-small cell lung cancer). The experiment in a line: MTT cytotoxicity assay, H1993. As to conditions: for IC50: Homo sapiens, NCI-H1993, read-out: IC50 H1993; for Ratio of IC50 ±H2O2, H1993: IC50 without / with H2O2 pre-incubation.
Method: (§1) In addition, to assess the amount of prodrug activation in these models, the cytotoxicity of the activated drugs after (cell-free) pre-incubation with H2O2 was tested for comparison.
(§2) All samples were dissolved in DMSO and diluted to the indicated concentrations (final concentrations of DMSO were below 1%). […] Viability was measured using 3-(4,5-dimethylthiazol-2-yl)-2,5-diphenyltetrazolium bromide (MTT) based vitality assay (EZ4U; Biomedica, Vienna, Austria) following the manufacturer’s recommendations.
In data set [2] the test system is non-malignant human lung fibroblasts (HLF). Kind of data set: MTT cytotoxicity assay, HLF. Particulars: Fibroblast, read-out: IC50 HLF. On the technique in general: Tetrazolium assays rely on reduction of a dye to a coloured formazan, in cell work by metabolically active cells.
Method: as §1, §2
For data set [3], the system named is RUMH (c-MET-overexpressing renal cell carcinoma). The experiment in a line: MTT cytotoxicity assay, RUMH. Particulars: for IC50: Homo sapiens, read-out: IC50 RUMH; for Ratio of IC50 ±H2O2, RUMH: IC50 without / with H2O2 pre-incubation.
Method: as §1, §2
Data set [4] deals with H2228 (ALK-dependent non-small cell lung cancer). The experiment in a line: MTT cytotoxicity assay, H2228. Particulars: for IC50: Homo sapiens, NCI-H2228, read-out: IC50 H2228; for Ratio of IC50 ±H2O2, H2228: IC50 without / with H2O2 pre-incubation.
Method: as §1, §2
The target of data set [5] is c-MET (Homo sapiens, UniProt P08581). Kind of data set: Cell-free kinase inhibition assay (SelectScreen, Z'-LYTE), c-MET. Particulars: for Prodrug factor c-MET = IC50 (prodrug)/IC50 (crizotinib): cell-free kinase assay.
Sequence of c-MET (P08581 25-1390): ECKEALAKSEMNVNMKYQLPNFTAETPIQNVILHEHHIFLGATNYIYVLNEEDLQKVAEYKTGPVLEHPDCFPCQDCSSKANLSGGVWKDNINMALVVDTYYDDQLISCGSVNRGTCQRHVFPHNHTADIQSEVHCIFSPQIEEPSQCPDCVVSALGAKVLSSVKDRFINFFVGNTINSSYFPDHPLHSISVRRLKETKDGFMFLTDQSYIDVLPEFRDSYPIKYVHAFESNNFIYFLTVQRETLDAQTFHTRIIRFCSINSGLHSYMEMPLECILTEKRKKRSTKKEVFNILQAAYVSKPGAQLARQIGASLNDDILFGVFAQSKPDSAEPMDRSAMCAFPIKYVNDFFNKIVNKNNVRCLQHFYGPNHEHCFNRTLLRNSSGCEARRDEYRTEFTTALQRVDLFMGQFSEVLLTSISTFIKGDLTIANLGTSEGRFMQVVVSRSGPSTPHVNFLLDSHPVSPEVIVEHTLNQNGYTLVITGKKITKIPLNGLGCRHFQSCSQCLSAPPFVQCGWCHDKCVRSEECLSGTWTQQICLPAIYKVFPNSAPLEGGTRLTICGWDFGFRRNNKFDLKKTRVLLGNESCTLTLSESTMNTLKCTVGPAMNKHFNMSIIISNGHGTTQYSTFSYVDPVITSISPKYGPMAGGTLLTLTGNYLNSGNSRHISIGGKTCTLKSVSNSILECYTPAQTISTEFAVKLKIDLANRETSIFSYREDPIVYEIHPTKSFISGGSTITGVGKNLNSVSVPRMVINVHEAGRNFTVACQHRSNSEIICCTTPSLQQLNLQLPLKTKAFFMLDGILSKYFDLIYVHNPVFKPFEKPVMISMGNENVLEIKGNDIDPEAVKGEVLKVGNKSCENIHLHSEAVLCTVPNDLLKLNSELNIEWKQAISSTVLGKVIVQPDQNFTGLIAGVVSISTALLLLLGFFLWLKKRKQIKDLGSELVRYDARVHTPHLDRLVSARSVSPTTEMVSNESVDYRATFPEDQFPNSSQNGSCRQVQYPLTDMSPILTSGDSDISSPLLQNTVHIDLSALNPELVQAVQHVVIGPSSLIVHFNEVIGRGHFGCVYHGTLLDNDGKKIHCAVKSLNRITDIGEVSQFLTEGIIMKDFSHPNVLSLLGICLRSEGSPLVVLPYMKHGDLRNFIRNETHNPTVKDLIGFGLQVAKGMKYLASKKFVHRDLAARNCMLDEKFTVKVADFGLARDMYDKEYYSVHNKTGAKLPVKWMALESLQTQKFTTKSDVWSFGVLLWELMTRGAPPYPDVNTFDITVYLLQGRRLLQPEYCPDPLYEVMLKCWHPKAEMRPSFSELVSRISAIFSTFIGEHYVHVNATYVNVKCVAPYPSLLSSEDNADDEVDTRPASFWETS
From the text: (§3) The test compounds were screened in a final concentration of 1% DMSO using the Z′-LYTE® Assay.
The nature of data set [6]: H2O2 activation assay (HPLC). Particulars: for Release of free crizotinib / Product of activation with H2O2: ten equivalents H2O2, phosphate buffer 50 mM pH 7.4, 37 °C; for Product of activation with H2O2: 1 h, HPLC-MS. As for the experimental part:
Therefore, the activation process was verified by incubation with ten equivalents of H2O2 in phosphate buffer (50 mM, pH 7.4) at 37 °C. […] In a complex biological environment, this quinone methide usually reacts with other nucleophiles; consequently, this side reaction can be neglected.
Additionally, a H2O2 solution (1 mM) in PB7.4 was prepared. The activation was started by addition of 5 µL of drug solution and 25 µL of H2O2 to 70 µL of PB7.4 and incubated at 37 °C for 1 h. At time point 0 and every 8 min, the sample were measured via HPLC. All measurements were performed on a ThermoFisher Ultimate 3000RS system using a Water’s Acquity BEH C18 column (3 × 50 mm, 1.7 µm) and a 5%–95% gradient of acetonitrile (+0.1% TFA) in water (+0.1% TFA). […] The results are visualized in Figure S6 for prodrug A and in Figure S7 for prodrug B.

Data set [7] addresses ALK (Homo sapiens, UniProt Q9UM73). The experiment in a line: Cell-free kinase inhibition assay (SelectScreen, Z'-LYTE), ALK. As to conditions: for Prodrug factor ALK = IC50 (prodrug)/IC50 (crizotinib): cell-free kinase assay.
From the text: as §3
The nature of data set [8]: Stability in R10 medium and fetal calf serum (HPLC-MS). As to conditions: R10 medium and pure FCS, 37 °C, after 72 h.
Method: After precipitation of the macromolecules with acetonitrile, the supernatant was investigated via HPLC-MS measurements (Figure 4).
The 10 mM stock solutions of the drugs were prepared in DMSO and diluted 1:10 with PB7.4. […] At different time points, macromolecules were precipitated by addition of 40 µL of acetonitrile, vortexed and centrifuged for 10 min at 6000 rpm. The supernatant was extracted and investigated via HPLC-MS measurements.
Details of data set [9]: method as in PMID 28256516. Particulars: approved orally applied drug, SwissADME prediction; cited from earlier work.

Sequence of ALK (Q9UM73 19-1620): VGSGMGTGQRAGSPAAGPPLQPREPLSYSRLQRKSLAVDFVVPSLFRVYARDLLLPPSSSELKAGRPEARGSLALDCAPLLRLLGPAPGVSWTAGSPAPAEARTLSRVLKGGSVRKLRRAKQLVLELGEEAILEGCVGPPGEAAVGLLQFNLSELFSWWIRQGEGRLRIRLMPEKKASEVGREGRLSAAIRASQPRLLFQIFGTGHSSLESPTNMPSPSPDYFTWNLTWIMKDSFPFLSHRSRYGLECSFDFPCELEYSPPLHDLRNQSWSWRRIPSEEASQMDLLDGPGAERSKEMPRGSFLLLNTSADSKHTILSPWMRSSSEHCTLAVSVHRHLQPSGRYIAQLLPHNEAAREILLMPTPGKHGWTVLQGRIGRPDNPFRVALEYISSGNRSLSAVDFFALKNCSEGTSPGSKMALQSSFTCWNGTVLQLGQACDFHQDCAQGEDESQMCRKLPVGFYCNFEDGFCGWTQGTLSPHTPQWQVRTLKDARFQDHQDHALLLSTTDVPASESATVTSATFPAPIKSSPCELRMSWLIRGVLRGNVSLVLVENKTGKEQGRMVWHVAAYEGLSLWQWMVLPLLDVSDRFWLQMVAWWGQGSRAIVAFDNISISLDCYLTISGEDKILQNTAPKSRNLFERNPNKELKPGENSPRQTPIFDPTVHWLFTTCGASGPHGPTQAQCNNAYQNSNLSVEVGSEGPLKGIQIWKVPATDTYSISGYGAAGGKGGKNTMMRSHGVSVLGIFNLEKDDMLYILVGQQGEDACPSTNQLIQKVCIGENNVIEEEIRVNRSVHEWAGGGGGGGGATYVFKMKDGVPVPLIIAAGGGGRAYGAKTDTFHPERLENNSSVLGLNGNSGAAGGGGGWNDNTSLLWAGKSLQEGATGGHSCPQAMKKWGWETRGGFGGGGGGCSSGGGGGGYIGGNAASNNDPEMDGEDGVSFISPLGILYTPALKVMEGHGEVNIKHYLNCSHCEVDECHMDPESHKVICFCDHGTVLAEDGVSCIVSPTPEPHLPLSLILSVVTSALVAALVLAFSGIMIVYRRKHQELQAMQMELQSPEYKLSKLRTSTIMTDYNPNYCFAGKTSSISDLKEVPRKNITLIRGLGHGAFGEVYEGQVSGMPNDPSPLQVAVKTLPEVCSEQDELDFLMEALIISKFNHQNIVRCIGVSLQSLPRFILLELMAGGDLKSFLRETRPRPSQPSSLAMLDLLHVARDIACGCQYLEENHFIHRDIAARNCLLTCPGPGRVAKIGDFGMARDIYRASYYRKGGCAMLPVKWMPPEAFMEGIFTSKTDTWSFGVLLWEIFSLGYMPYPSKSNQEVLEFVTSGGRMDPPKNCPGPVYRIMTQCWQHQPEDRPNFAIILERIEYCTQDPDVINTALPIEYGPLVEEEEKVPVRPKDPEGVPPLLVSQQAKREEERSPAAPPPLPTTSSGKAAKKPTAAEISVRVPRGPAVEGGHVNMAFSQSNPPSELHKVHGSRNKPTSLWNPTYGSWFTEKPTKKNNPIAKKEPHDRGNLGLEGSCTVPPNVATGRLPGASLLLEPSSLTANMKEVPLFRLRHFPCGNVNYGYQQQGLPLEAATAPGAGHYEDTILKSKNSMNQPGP

In the case of `C[C@@H](Oc1cc(-c2cnn(C3CCNCC3)c2)cnc1NCc1ccc(O)cc1)c1c(Cl)ccc(F)c1Cl` [Compound C, (R)-4-(((3-(1-(2,6-Dichloro-3-fluorophenyl)ethoxy)-5-(1-(piperidin-4-yl)-1H-pyrazol-4-yl)pyridin-2-yl)amino)methyl)phenol], the IC50 in [1] amounted to 9.96 ± 2.69 µM; in data set [2], 4.03 ± 0.04 µM; in data set [3] it was 5.94 ± 1.09 µM; in [4], 7.23 ± 0.28 µM.

On to `C[C@@H](Oc1cc(-c2cnn(C3CCNCC3)c2)cnc1N)c1c(Cl)ccc(F)c1Cl` [Crizotinib, reference compound], for which the values for the IC50 in data set [1], in data set [2] and in [3] were 3.18 ± 0.26 µM, 6.32 ± 0.39 µM and 6.08 ± 1.51 µM, respectively.

For the compound `C[C@@H](Oc1cc(-c2cnn(C3CCNCC3)c2)cnc1NC(=O)OCc1ccc(B(O)O)cc1)c1c(Cl)ccc(F)c1Cl` [Prodrug A, (R)-(4-((((3-(1-(2,6-Dichloro-3-fluorophenyl)ethoxy)-5-(1-(piperidin-4-yl)-1H-pyrazol-4-yl)pyridin-2-yl)carbamoyl)oxy)methyl)phenyl)boronic acid], the IC50 worked out at 9.73 ± 2.63 µM in data set [1]; 0.055 µM in data set [5]; 16.8 ± 1.38 µM in [2]; 14 ± 3.92 µM in data set [3]; 23.1 ± 0.47 µM in [4]; 0.472 µM in [7]. In addition, the “Ratio of IC50 ±H2O2, H1993” value in data set [1] is 1.22. In addition, in data set [5], the “Prodrug factor c-MET = IC50 (prodrug)/IC50 (crizotinib)” value was found to be 11. Besides, the “Time to activation on incubation with H2O2” value in data set [6] (incubation with H2O2) is recorded as at most 1 h. Moreover, the “Release of free crizotinib” value in data set [6] (after 10 min) is reported as ~ 50%; in data set [6] (after 1 h), ~ 75%. The “Ratio of IC50 ±H2O2, RUMH” value in [3] was determined as 1.57. In data set [4], the “Ratio of IC50 ±H2O2, H2228” value came out at 1.62. Further, in [7], the “Prodrug factor ALK = IC50 (prodrug)/IC50 (crizotinib)” value worked out at 22.

For the compound `C[C@@H](Oc1cc(-c2cnn(C3CCNCC3)c2)cnc1NCc1ccc(B(O)O)cc1)c1c(Cl)ccc(F)c1Cl` [Prodrug B, (R)-(4-(((3-(1-(2,6-Dichloro-3-fluorophenyl)ethoxy)-5-(1-(piperidin-4-yl)-1H-pyrazol-4-yl)pyridin-2-yl)amino)methyl)phenyl)boronic acid], the IC50 in data set [1] was determined as 10.2 ± 1.68 µM; in data set [5] it was 0.684 µM; in data set [2] it was 8.99 ± 0.36 µM; in data set [3], 5.05 ± 0.44 µM; in data set [4], 8.3 ± 0.42 µM; in data set [7], 0.333 µM. In [1], the “Ratio of IC50 ±H2O2, H1993” value worked out at 0.87. For the same compound, the “Prodrug factor c-MET = IC50 (prodrug)/IC50 (crizotinib)” value in data set [5] is reported as 137. Moreover, the “Product of activation with H2O2” value in data set [6] is reported as “formation of a hydrolyzed but stable phenol derivative, compound C”; in data set [6] (listed as prodrug B) it was “formation of compound C rather than the release of crizotinib”. Besides, the “Ratio of IC50 ±H2O2, RUMH” value in data set [3] amounted to 0.91. Besides, the “Ratio of IC50 ±H2O2, H2228” value in data set [4] is 0.92. In addition, in [8], the Prodrug still intact was 30–40%. Moreover, the “Prodrug factor ALK = IC50 (prodrug)/IC50 (crizotinib)” value in [7] was determined as 16.

`CS(=O)(=O)CCNCc1ccc(-c2ccc3ncnc(Nc4ccc(OCc5cccc(F)c5)c(Cl)c4)c3c2)o1` [lapatinib]: the “GI absorption (predicted)” value in data set [9] was “low”.
